One assay deals with BRAF V660E (Homo sapiens, UniProt P15056, V600E). The experiment in a line: KD BRAF V660E (Table 1; no method described). It is filed as binding.
For assay [1], the system named is HCT116 cells (WT BRAF), ERK phospho-T202/Y204. The assay is described as follows: HTRF assay for P-ERK determination in HCT116 cells (BRAF activation, paradox). It is filed as cell-based. To be noted: for EC50: Homo sapiens, HCT-116, HCT116 cells, 1 hour drug incubation, activation relative to maximum Dabrafenib-mediated activation (100%), top concentration 10 μM, read-out: P-ERK_HCT-116: EC50—50PCT; for Fold Selectivity HCT-116 EC50-50/ A375: ratio of P-ERK HCT-116 EC50-50PCT to P-ERK A375 IC50. The essentials:
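HCT116 (WT BRAF) cells, 8000/well in DMEM + 10% FBS, treated 1 h with compound at 0.001–10 μM in duplicate; lysed, then HTRF antibodies for ERK phospho-T202/Y204, read after overnight dark incubation at room temperature. Blank-subtracted ratio normalized to DMSO (0%) and peak dabrafenib signal (100%); sigmoidal or bell-shaped fit gives % activation.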
(TR-FRET usually uses a lanthanide donor and a delayed reading to cut background.)

Assay [2] has as its system A375 cells (V600E mutated BRAF), ERK phospho-T202/Y204. The experiment in a line: HTRF assay for P-ERK determination in A375 cells (BRAF inhibition). It is filed as cell-based. To be noted: Homo sapiens, A-375, 1 hour drug incubation, DMSO = 100%, 10 μM Dabrafenib = 0%, top concentration 10 μM, read-out: P-ERK_A375: IC50. The essentials: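 A375 cells (V600E BRAF), 8000/well, treated 1 h with compounds at 0.001–10 μM final in duplicate; lysed and phospho-ERK (Thr202/Tyr204) read by HTRF at 665/620 nm after overnight RT incubation. Blank-subtracted ratios normalized to DMSO (100%) and 10 μM dabrafenib (0%); IC50 from sigmoidal fit.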

The target in another assay is BRAF (Homo sapiens, UniProt P15056). The assay is described as follows: KD BRAF (Table 1; no method described). In kind it is binding.
Sequence of BRAF (P15056 whole entry): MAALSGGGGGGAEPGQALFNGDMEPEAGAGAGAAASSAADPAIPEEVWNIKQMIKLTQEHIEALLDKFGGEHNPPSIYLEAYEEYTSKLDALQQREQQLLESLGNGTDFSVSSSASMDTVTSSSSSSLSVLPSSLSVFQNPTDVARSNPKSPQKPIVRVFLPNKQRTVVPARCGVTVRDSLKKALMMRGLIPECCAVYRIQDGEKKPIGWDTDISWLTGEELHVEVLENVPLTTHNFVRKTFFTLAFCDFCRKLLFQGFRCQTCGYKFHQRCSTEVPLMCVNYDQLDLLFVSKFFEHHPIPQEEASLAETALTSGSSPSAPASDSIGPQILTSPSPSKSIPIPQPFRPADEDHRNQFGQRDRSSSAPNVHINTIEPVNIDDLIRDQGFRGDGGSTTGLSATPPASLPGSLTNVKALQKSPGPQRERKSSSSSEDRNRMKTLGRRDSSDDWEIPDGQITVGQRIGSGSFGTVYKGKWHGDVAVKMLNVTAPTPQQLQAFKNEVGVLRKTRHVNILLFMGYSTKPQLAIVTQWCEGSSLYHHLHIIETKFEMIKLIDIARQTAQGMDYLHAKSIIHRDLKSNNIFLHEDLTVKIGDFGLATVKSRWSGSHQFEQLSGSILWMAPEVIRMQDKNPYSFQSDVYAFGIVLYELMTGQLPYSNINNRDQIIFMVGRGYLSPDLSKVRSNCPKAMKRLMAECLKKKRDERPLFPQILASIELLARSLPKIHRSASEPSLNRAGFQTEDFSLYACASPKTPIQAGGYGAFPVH

Molecules are shown by their SMILES.

Sequence of BRAF V660E (P15056 2-766 V600E): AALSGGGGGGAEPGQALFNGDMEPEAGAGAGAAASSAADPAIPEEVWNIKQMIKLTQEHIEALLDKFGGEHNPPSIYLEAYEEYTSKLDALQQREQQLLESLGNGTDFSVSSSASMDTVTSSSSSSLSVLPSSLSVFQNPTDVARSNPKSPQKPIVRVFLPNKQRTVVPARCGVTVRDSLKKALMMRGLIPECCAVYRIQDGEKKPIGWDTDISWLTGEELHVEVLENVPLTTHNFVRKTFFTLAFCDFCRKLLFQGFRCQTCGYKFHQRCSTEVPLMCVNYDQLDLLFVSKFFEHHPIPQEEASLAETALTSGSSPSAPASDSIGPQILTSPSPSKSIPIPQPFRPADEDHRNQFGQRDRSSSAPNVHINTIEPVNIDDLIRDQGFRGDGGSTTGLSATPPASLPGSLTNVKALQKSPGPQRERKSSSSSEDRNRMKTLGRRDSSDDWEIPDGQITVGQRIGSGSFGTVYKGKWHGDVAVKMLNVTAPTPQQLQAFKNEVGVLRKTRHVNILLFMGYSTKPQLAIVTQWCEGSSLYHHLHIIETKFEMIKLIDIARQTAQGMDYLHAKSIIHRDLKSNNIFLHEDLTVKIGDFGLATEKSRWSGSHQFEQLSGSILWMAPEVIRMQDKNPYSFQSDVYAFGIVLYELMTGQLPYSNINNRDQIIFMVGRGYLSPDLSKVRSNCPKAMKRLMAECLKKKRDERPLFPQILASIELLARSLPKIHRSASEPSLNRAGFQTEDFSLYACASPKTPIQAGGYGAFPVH

`CC(=O)NCCOCCOCCNc1ncc2cc(-c3c(F)ccc(NS(=O)(=O)N4CC[C@@H](F)C4)c3F)c(=O)n(C)c2n1` [Example 32, N-[2-[2-[2-[[6-[2,6-difluoro-3-[[(3R)-3-fluoropyrrolidin-1-yl]sulfonylamino]phenyl]-8-methyl-7-oxopyrido[2,3-d]pyrimidin-2-yl]amino]ethoxy]ethoxy]ethyl]acetamide] had a Kd at BRAF V660E of 70 nM. For the same compound, in assay [1], the EC50 was at least 10000 nM and the “Fold Selectivity HCT-116 EC50-50/ A375” value is recorded as above 51.1. In assay [2], the IC50 was found to be 196 nM. At BRAF, the affinity, expressed as Kd, was 23.6 nM.
The compound `CC(=O)N1CCC(NC(=O)CCCNc2ncc3cc(-c4c(F)ccc(NS(=O)(=O)N5CC[C@@H](F)C5)c4F)c(=O)n(C)c3n2)CC1` [Example 33, N-(1-acetylpiperidin-4-yl)-4-[[6-[2,6-difluoro-3-[[(3R)-3-fluoropyrrolidin-1-yl]sulfonylamino]phenyl]-8-methyl-7-oxopyrido[2,3-d]pyrimidin-2-yl]amino]butanamide] registered a Kd at BRAF V660E of 60.1 nM. Moreover, in assay [1], the EC50 is at least 10000 nM and the “Fold Selectivity HCT-116 EC50-50/ A375” value is above 3.2. The IC50 in assay [2] came out at 3170 nM. At BRAF, this compound showed a Kd of 24.9 nM.
For the compound `CC(=O)NCc1cccc(CCNc2ncc3cc(-c4c(F)ccc(NS(=O)(=O)N5CC[C@@H](F)C5)c4F)c(=O)n(C)c3n2)c1` [Example 34, N-[[3-[2-[[6-[2,6-difluoro-3-[[(3R)-3-fluoropyrrolidin-1-yl]sulfonylamino]phenyl]-8-methyl-7-oxopyrido[2,3-d]pyrimidin-2-yl]amino]ethyl]phenyl]methyl]acetamide], the Kd at BRAF V660E came to 4 nM; on BRAF it was 1.8 nM. The 50% effective concentration (EC50) in assay [1] is 681 nM. For the same compound, the “Fold Selectivity HCT-116 EC50-50/ A375” value in assay [1] is given as 59.1. In addition, the IC50 in assay [2] was 11.5 nM.
On the same counts, the results for `CC(=O)NCc1ccc(CCNc2ncc3cc(-c4c(F)ccc(NS(=O)(=O)N5CC[C@@H](F)C5)c4F)c(=O)n(C)c3n2)cc1` [Example 35, N-[[4-[2-[[6-[2,6-difluoro-3-[[(3R)-3-fluoropyrrolidin-1-yl]sulfonylamino]phenyl]-8-methyl-7-oxopyrido[2,3-d]pyrimidin-2-yl]amino]ethyl]phenyl]methyl]acetamide] are 22.1 nM, 5.7 nM, 1490 nM, 40.0 and 37.3 nM.
Regarding `CC(=O)N(C)Cc1cccc(CCNc2ncc3cc(-c4c(F)ccc(NS(=O)(=O)N5CC[C@@H](F)C5)c4F)c(=O)n(C)c3n2)c1` [Example 36, N-[[3-[2-[[6-[2,6-difluoro-3-[[(3R)-3-fluoropyrrolidin-1-yl]sulfonylamino]phenyl]-8-methyl-7-oxopyrido[2,3-d]pyrimidin-2-yl]amino]ethyl]phenyl]methyl]-N-methylacetamide], the Kd at BRAF V660E turned out to be 17.2 nM. In assay [1], the EC50 turned out to be 2730 nM and the “Fold Selectivity HCT-116 EC50-50/ A375” value is on record as 133.4. In assay [2], the IC50 turned out to be 20.5 nM. The Kd on BRAF was 8.9 nM.
On BRAF V660E, `CCN(C)S(=O)(=O)Nc1cccc(-c2cc3cnc(NCCC4CCN(C(C)=O)CC4)nc3n(C)c2=O)c1C#N` [Example 37, 2-[2-(1-acetylpiperidin-4-yl)ethylamino]-6-[2-cyano-3-[[ethyl(methyl)sulfamoyl]amino]phenyl]-8-methyl-7-oxopyrido[2,3-d]pyrimidine] yielded a Kd of 4 nM. In addition, in assay [1], the EC50 came to 463 nM and the “Fold Selectivity HCT-116 EC50-50/ A375” value is recorded as 9.4. In assay [2], the IC50 is 49.5 nM. At BRAF, this compound returned a Kd of 2.2 nM.
`Cl.NCCOCCOCCn1c(=O)c(-c2c(F)ccc(NS(=O)(=O)N3CC[C@@H](F)C3)c2F)cc2cnc(NCC3CC3)nc21` [Example 39, (3R)—N-[3-[8-[2-[2-(2-aminoethoxy)ethoxy]ethyl]-2-(cyclopropylmethylamino)-7-oxopyrido[2,3-d]pyrimidin-6-yl]-2,4-difluorophenyl]-3-fluoropyrrolidine-1-sulfonamide; hydrochloride]: on BRAF V660E, the Kd is 41.3 nM. Moreover, in assay [1], the EC50 was at least 10000 nM and the “Fold Selectivity HCT-116 EC50-50/ A375” value worked out at 1.0. Also, in assay [2], the IC50 is at least 10000 nM. In addition, binding at BRAF was put at a Kd of 13.4 nM.
At BRAF V660E, `CC(=O)NCCOCCOCCn1c(=O)c(-c2c(F)ccc(NS(=O)(=O)N3CC[C@@H](F)C3)c2F)cc2cnc(NCC3CC3)nc21` [Example 41, N-[2-[2-[2-[2-(cyclopropylmethylamino)-6-[2,6-difluoro-3-[[(3R)-3-fluoropyrrolidin-1-yl]sulfonylamino]phenyl]-7-oxopyrido[2,3-d]pyrimidin-8-yl]ethoxy]ethoxy]ethyl]acetamide] came in with a dissociation constant Kd of 56.1 nM. Also, in assay [1], the EC50 is at least 10000 nM and the “Fold Selectivity HCT-116 EC50-50/ A375” value was above 11.8. In assay [2], the IC50 was 844 nM. On BRAF, the Kd came to 21.2 nM.
In turn, `CC(=O)N[C@H]1C[C@H](n2c(=O)c(-c3c(F)ccc(NS(=O)(=O)N4CC[C@@H](F)C4)c3F)cc3cnc(NCC4CC4)nc32)C1` [Example 43, trans-N-[3-[2-(cyclopropylmethylamino)-6-[2,6-difluoro-3-[[(3R)-3-fluoropyrrolidin-1-yl]sulfonylamino]phenyl]-7-oxopyrido[2,3-d]pyrimidin-8-yl]cyclobutyl]acetamide] came in with a Kd at BRAF V660E of 12.9 nM. In assay [1], the EC50 came out at 404 nM and the “Fold Selectivity HCT-116 EC50-50/ A375” value stood at 3.7. In assay [2], the IC50 is 108 nM. Besides, the affinity on BRAF, expressed as Kd, was 5.5 nM.
On to `CCN(C)S(=O)(=O)Nc1ccc(F)c(-c2cc3cnc(NCC4CC4)nc3n(CCOCc3ccccc3)c2=O)c1F` [Example 44, 2-(Cyclopropylmethylamino)-6-[3-[[ethyl(methyl)sulfamoyl]amino]-2,6-difluorophenyl]-7-oxo-8-(2-phenylmethoxyethyl)pyrido[2,3-d]pyrimidine], for which the dissociation constant Kd at BRAF V660E amounted to 1750 nM; at BRAF, 1380 nM. Besides, the EC50 in assay [1] is at least 10000 nM. In addition, the “Fold Selectivity HCT-116 EC50-50/ A375” value in assay [1] is above 5.3. Further, the IC50 in assay [2] was 1900 nM.
With `Cn1c(=O)c(-c2c(F)ccc(NS(=O)(=O)N3CC[C@@H](F)C3)c2F)cc2cnc(NCCc3ccc(CC(=O)OC(C)(C)C)cc3)nc21` [Example 46, tert-butyl 2-[4-[2-[[6-[2,6-difluoro-3-[[(3R)-3-fluoropyrrolidin-1-yl]sulfonylamino]phenyl]-8-methyl-7-oxopyrido[2,3-d]pyrimidin-2-yl]amino]ethyl]phenyl]acetate], binding on BRAF V660E was characterised by a dissociation constant (Kd) of 224 nM. Further, in assay [1], the EC50 was 3530 nM and the “Fold Selectivity HCT-116 EC50-50/ A375” value turned out to be 55.0. The IC50 in assay [2] was found to be 64.2 nM. For the same compound, the affinity at BRAF, expressed as Kd, was 96.7 nM.
With `COC(=O)Cc1cccc(CCNc2ncc3cc(-c4c(F)ccc(NS(=O)(=O)N5CC[C@@H](F)C5)c4F)c(=O)n(C)c3n2)c1` [Example 47, methyl 2-[3-[2-[[6-[2,6-difluoro-3-[[(3R)-3-fluoropyrrolidin-1-yl]sulfonylamino]phenyl]-8-methyl-7-oxopyrido[2,3-d]pyrimidin-2-yl]amino]ethyl]phenyl]acetate], the Kd on BRAF V660E worked out at 23.2 nM. Also, in assay [1], the EC50 amounted to 4470 nM and the “Fold Selectivity HCT-116 EC50-50/ A375” value worked out at 116.0. In addition, the IC50 in assay [2] was determined as 38.5 nM. This compound also showed a Kd on BRAF of 9.2 nM.
In the case of `Cn1c(=O)c(-c2c(F)ccc(NS(=O)(=O)N3CC[C@@H](F)C3)c2F)cc2cnc(NCCc3cnc(CC(=O)OC(C)(C)C)nc3)nc21` [Example 48, tert-butyl 2-[5-[2-[[6-[2,6-difluoro-3-[[(3R)-3-fluoropyrrolidin-1-yl]sulfonylamino]phenyl]-8-methyl-7-oxopyrido[2,3-d]pyrimidin-2-yl]amino]ethyl]pyrimidin-2-yl]acetate], the dissociation constant Kd at BRAF V660E came to 56.6 nM. For the same compound, in assay [1], the EC50 is 5920 nM and the “Fold Selectivity HCT-116 EC50-50/ A375” value was found to be 33.7. The IC50 in assay [2] turned out to be 176 nM. This compound also came in with a Kd on BRAF of 26.6 nM.
Turning to `CC(=O)N1Cc2ccc(CCNc3ncc4cc(-c5c(F)ccc(NS(=O)(=O)N6CC[C@@H](F)C6)c5F)c(=O)n(C)c4n3)cc2C1` [Example 49, (3R)—N-[3-[2-[2-(2-Acetyl-1,3-dihydroisoindol-5-yl)ethylamino]-8-methyl-7-oxopyrido[2,3-d]pyrimidin-6-yl]-2,4-difluorophenyl]-3-fluoropyrrolidine-1-sulfonamide], the Kd at BRAF V660E came to 6.5 nM; at BRAF, 2.5 nM. The EC50 in assay [1] stood at 989 nM. For the same compound, in assay [1], the “Fold Selectivity HCT-116 EC50-50/ A375” value was 117.8. Also, in assay [2], the IC50 was 8.4 nM.
As for `CC(=O)N1CCc2ccc(CCNc3ncc4cc(-c5c(F)ccc(NS(=O)(=O)N6CC[C@@H](F)C6)c5F)c(=O)n(C)c4n3)cc2C1` [Example 50, (3R)-N-[3-[2-[2-(2-acetyl-3,4-dihydro-1H-isoquinolin-7-yl)ethylamino]-8-methyl-7-oxopyrido[2,3-d]pyrimidin-6-yl]-2,4-difluorophenyl]-3-fluoropyrrolidine-1-sulfonamide], the Kd at BRAF V660E is 13.8 nM; on BRAF, 4.5 nM. For the same compound, the EC50 in assay [1] was 1550 nM. In addition, in assay [1], the “Fold Selectivity HCT-116 EC50-50/ A375” value was 103.6. Further, the 50% inhibitory concentration (IC50) in assay [2] came to 15 nM.

As a reminder, the Kd is the free concentration of one partner at which half of the binding sites on the other are occupied at equilibrium, for simple one-to-one binding. Higher therefore signals lower affinity. As a reminder, the EC50 is the concentration at which the effect is half-maximal. In general, IC50 refers to the concentration needed to halve the response being measured.

(Values after US20230322776A1, “NEW ARYL-PYRIDO-PYRIMIDIN-ONE DERIVATIVES” (Hoffmann-La Roche Inc., priority 2020, published 2023).)
